# Data taken from PubChem BioAssay AID248 (DTP/NCI, 2004).
# Values joined by “and” are separate entries in the source; they are usually repeats but may differ in a detail not shown here. Equal entries are not always repeated. Toxic doses and inconclusive results are not listed.
# Tested on: L1210 leukemia ip in BDF1 mice, survival T/C
# Experiment: NCI In Vivo Anticancer Drug Screen. Data for tumor model L1210 Leukemia (intraperitoneal) in B6D2F1 (BDF1) mice
# Conditions: endpoint: mean survival time, higher = longer survival
# Experimental: The antitumor activity of compounds was measured in mice bearing transplantable tumors. Survival or tumor size were measured and the results are expressed as the measurement made in the treated group (T) divided by the measurement made in the vehicle treated control group (C). The tumor model used in this assay is L1210 Leukemia (intraperitoneal) in B6D2F1 (BDF1) mice
# [1] = dose: 50.0 mg/kg/injection, schedule: Q01DX009 (ip), vehicle: Klucel (hydroxypropylcellulose) (HPC)
# [2] = dose: 100.0 mg/kg/injection, schedule: Q01DX009 (ip), vehicle: Klucel (hydroxypropylcellulose) (HPC)
# [3] = dose: 200.0 mg/kg/injection, schedule: Q01DX009 (ip), vehicle: Klucel (hydroxypropylcellulose) (HPC)
# [4] = dose: 100.0 mg/kg/injection, schedule: Q04DX003 (ip), vehicle: Klucel (hydroxypropylcellulose) (HPC)
# [5] = dose: 200.0 mg/kg/injection, schedule: Q04DX003 (ip), vehicle: Klucel (hydroxypropylcellulose) (HPC)
# [6] = dose: 400.0 mg/kg/injection, schedule: Q01DX009 (ip), vehicle: Klucel (hydroxypropylcellulose) (HPC)
# [7] = dose: 400.0 mg/kg/injection, schedule: Q04DX003 (ip), vehicle: Klucel (hydroxypropylcellulose) (HPC)
smiles,measurement,setting,value
COc1ccc([N+](=O)[O-])cc1NC(=O)Oc1ccc(F)cc1,T/C,[1],100 % of control
same,T/C,[2],92 % of control
same,T/C,[3],96 % of control
CCN1/C(=C/C=C/C=C/c2sc3ccccc3[n+]2CC)Sc2ccccc21,T/C,"dose: 0.04 mg/kg/injection, schedule: Q01DX009 (ip), vehicle: saline",110 % of control
same,T/C,"dose: 0.08 mg/kg/injection, schedule: Q01DX009 (ip), vehicle: saline",93 % of control
same,T/C,"dose: 0.09 mg/kg/injection, schedule: Q01DX009 (ip), vehicle: saline",117 % of control
same,T/C,"dose: 0.09 mg/kg/injection, schedule: Q04DX003 (ip), vehicle: saline",102 % of control
same,T/C,"dose: 0.19 mg/kg/injection, schedule: Q01DX009 (ip), vehicle: saline",122 % of control
same,T/C,"dose: 0.19 mg/kg/injection, schedule: Q04DX002 (ip), vehicle: saline",102 % of control
same,T/C,"dose: 0.19 mg/kg/injection, schedule: Q04DX003 (ip), vehicle: saline",102 % of control
same,T/C,"dose: 0.32 mg/kg/injection, schedule: Q01DX009 (ip), vehicle: saline",88 % of control
same,T/C,"dose: 0.37 mg/kg/injection, schedule: Q01DX001 (ip), vehicle: saline",95 % of control
same,T/C,"dose: 0.38 mg/kg/injection, schedule: Q01DX009 (ip), vehicle: saline",96 % of control
same,T/C,"dose: 0.38 mg/kg/injection, schedule: Q04DX002 (ip), vehicle: saline",103 % of control
same,T/C,"dose: 0.38 mg/kg/injection, schedule: Q04DX003 (ip), vehicle: saline",105 % of control
same,T/C,"dose: 0.39 mg/kg/injection, schedule: Q01DX009 (ip), vehicle: saline",109 % of control
same,T/C,"dose: 0.62 mg/kg/injection, schedule: Q01DX001 (ip), vehicle: other",105 % of control
same,T/C,"dose: 0.75 mg/kg/injection, schedule: Q01DX001 (ip), vehicle: saline",102 % of control
same,T/C,"dose: 0.76 mg/kg/injection, schedule: Q04DX002 (ip), vehicle: saline",107 % of control
same,T/C,"dose: 0.76 mg/kg/injection, schedule: Q04DX003 (ip), vehicle: saline",103 % of control
same,T/C,"dose: 0.8 mg/kg/injection, schedule: Q01DX001 (ip), vehicle: saline",105 % of control
same,T/C,"dose: 1.25 mg/kg/injection, schedule: Q01DX001 (ip), vehicle: other",110 % of control
same,T/C,"dose: 1.5 mg/kg/injection, schedule: Q01DX001 (ip), vehicle: saline",105 % of control
same,T/C,"dose: 1.5 mg/kg/injection, schedule: Q04DX002 (ip), vehicle: saline",110 % of control
same,T/C,"dose: 2.5 mg/kg/injection, schedule: Q01DX001 (ip), vehicle: other",115 % of control
same,T/C,"dose: 3.0 mg/kg/injection, schedule: Q01DX001 (ip), vehicle: saline",110 % of control
same,T/C,"dose: 5.0 mg/kg/injection, schedule: Q01DX001 (ip), vehicle: other",107 % of control
COC(=O)c1ccccc1NC(=S)NC(=O)/C=C/c1ccccc1,T/C,[2],94 % of control
same,T/C,[4],97 % of control
same,T/C,[3],103 % of control
same,T/C,[5],95 % of control
same,T/C,[6],106 % of control
same,T/C,[7],91 % of control
C=CCn1c(-c2cccs2)nc2c(Cl)ncnc21,T/C,"dose: 24.0 mg/kg/injection, schedule: Q01DX009 (ip), vehicle: steriod suspending solution",88 % of control
same,T/C,"dose: 39.0 mg/kg/injection, schedule: Q01DX009 (ip), vehicle: steriod suspending solution",90 % of control
CCC(CC)(C1CCC(O)CC1)C1CCC(O)CC1 (stereo unspecified),T/C,"dose: 75.0 mg/kg/injection, schedule: Q01DX001 (ip), vehicle: carboxymethylcellulose (CMC)",93 % of control
same,T/C,"dose: 150.0 mg/kg/injection, schedule: Q01DX001 (ip), vehicle: carboxymethylcellulose (CMC)",91 % of control
same,T/C,"dose: 300.0 mg/kg/injection, schedule: Q01DX001 (ip), vehicle: carboxymethylcellulose (CMC)",89 % of control
O=c1[nH]c(=O)n(C2OC(CO)C(O)C2O)cc1CCC(F)(F)F (stereo unspecified),T/C,"dose: 50.0 mg/kg/injection, schedule: Q01DX005 (ip), vehicle: saline",94 % of control
same,T/C,"dose: 100.0 mg/kg/injection, schedule: Q01DX005 (ip), vehicle: saline",109 % of control
same,T/C,"dose: 200.0 mg/kg/injection, schedule: Q01DX005 (ip), vehicle: saline",98 % of control
N=C(N)c1ccncc1,T/C,"dose: 100.0 mg/kg/injection, schedule: Q04DX003 (ip), vehicle: saline",104 % of control
same,T/C,"dose: 200.0 mg/kg/injection, schedule: Q04DX003 (ip), vehicle: saline",104 % of control
same,T/C,"dose: 400.0 mg/kg/injection, schedule: Q04DX003 (ip), vehicle: saline",107 % of control
O=C1/C(=C\c2ccccn2)CCCc2ccccc21,T/C,"dose: 25.0 mg/kg/injection, schedule: Q01DX009 (ip), vehicle: Klucel (hydroxypropylcellulose) (HPC)",102 % of control
same,T/C,[1],98 % of control
same,T/C,"dose: 50.0 mg/kg/injection, schedule: Q04DX003 (ip), vehicle: Klucel (hydroxypropylcellulose) (HPC)",98 % of control
same,T/C,[2],101 % of control
same,T/C,[4],98 % of control
same,T/C,"dose: 100.0 mg/kg/injection, schedule: Q04DX003 (ip), vehicle: carboxymethylcellulose (CMC)",96 % of control
same,T/C,[3],100 % of control
same,T/C,[5],102 % of control
same,T/C,"dose: 200.0 mg/kg/injection, schedule: Q04DX003 (ip), vehicle: carboxymethylcellulose (CMC)",100 % of control
same,T/C,[6],102 % of control
same,T/C,[7],93 % of control
same,T/C,"dose: 400.0 mg/kg/injection, schedule: Q04DX003 (ip), vehicle: carboxymethylcellulose (CMC)",156 % of control
same,T/C,"dose: 800.0 mg/kg/injection, schedule: Q04DX003 (ip), vehicle: Klucel (hydroxypropylcellulose) (HPC)",104 % of control
CC(=O)Nc1c(CCCCc2ccccc2)[nH]c(=O)[nH]c1=O,T/C,"dose: 25.0 mg/kg/injection, schedule: Q01DX001 (ip), vehicle: Klucel (hydroxypropylcellulose) (HPC)",101 % of control
same,T/C,"dose: 50.0 mg/kg/injection, schedule: Q01DX001 (ip), vehicle: Klucel (hydroxypropylcellulose) (HPC)",92 % of control
same,T/C,"dose: 100.0 mg/kg/injection, schedule: Q01DX001 (ip), vehicle: Klucel (hydroxypropylcellulose) (HPC)",99 % of control and 101 % of control
[O-][n+]1onc2ccccc21,T/C,"dose: 100.0 mg/kg/injection, schedule: Q01DX001 (ip), vehicle: saline with Tween-80",97 % of control
Nc1cc(Cl)cc2c1-c1c(Cl)cc(Cl)cc1C2,T/C,[2],102 % of control
same,T/C,[4],96 % of control
same,T/C,[5],104 % of control
same,T/C,[6],102 % of control
same,T/C,[7],104 % of control
CCCCNc1nc(N)nc(N)c1[N+](=O)[O-],T/C,[4],103 % of control
same,T/C,[5],98 % of control
same,T/C,[7],101 % of control
CCOC(=O)C1(CCC(C)=O)CCCCC1=O (stereo unspecified),T/C,"dose: 100.0 mg/kg/injection, schedule: Q04DX002 (ip), vehicle: Klucel (hydroxypropylcellulose) (HPC)",97 % of control
same,T/C,"dose: 200.0 mg/kg/injection, schedule: Q04DX002 (ip), vehicle: Klucel (hydroxypropylcellulose) (HPC)",103 % of control
same,T/C,"dose: 400.0 mg/kg/injection, schedule: Q04DX002 (ip), vehicle: Klucel (hydroxypropylcellulose) (HPC)",100 % of control
COc1ccccc1/C=C1\SC(=S)NC1=O,T/C,"dose: 50.0 mg/kg/injection, schedule: Q01DX001 (ip), vehicle: carboxymethylcellulose (CMC)",92 % of control
same,T/C,"dose: 100.0 mg/kg/injection, schedule: Q01DX001 (ip), vehicle: carboxymethylcellulose (CMC)",101 % of control
same,T/C,"dose: 200.0 mg/kg/injection, schedule: Q01DX001 (ip), vehicle: carboxymethylcellulose (CMC)",106 % of control
same,T/C,"dose: 400.0 mg/kg/injection, schedule: Q01DX001 (ip), vehicle: carboxymethylcellulose (CMC)",90 % of control
O=NN(CCCl)C(=O)NC1CCC(Br)CC1 (stereo unspecified),T/C,"dose: 10.0 mg/kg/injection, schedule: Q01DX001 (ip), vehicle: saline with Tween-80",122 % of control
same,T/C,"dose: 22.0 mg/kg/injection, schedule: Q01DX001 (ip), vehicle: saline with Tween-80",150 % of control
same,T/C,"dose: 33.5 mg/kg/injection, schedule: Q01DX001 (ip), vehicle: saline with Tween-80",197 % of control
same,T/C,"dose: 50.0 mg/kg/injection, schedule: Q01DX001 (ip), vehicle: saline with Tween-80",455 % of control
same,T/C,"dose: 75.0 mg/kg/injection, schedule: Q01DX001 (ip), vehicle: saline with Tween-80",455 % of control
same,T/C,"dose: 112.0 mg/kg/injection, schedule: Q01DX001 (ip), vehicle: saline with Tween-80",420 % of control
same,T/C,"dose: 252.0 mg/kg/injection, schedule: Q01DX001 (ip), vehicle: saline with Tween-80",208 % of control
CCCCCCCCCCOC(=O)C[n+]1cccc(C(N)=O)c1,T/C,"dose: 12.5 mg/kg/injection, schedule: Q04DX003 (ip), vehicle: saline",96 % of control
same,T/C,"dose: 25.0 mg/kg/injection, schedule: Q04DX003 (ip), vehicle: saline",102 % of control
same,T/C,"dose: 50.0 mg/kg/injection, schedule: Q04DX003 (ip), vehicle: saline",93 % of control
